This note sets out measurements from PubChem BioAssay AID1996.

In brackets after ≈: the same amount, converted by molar mass.

The conditions of the series: buffer; pH 7.4; 200.0 µM.
Usually kinetic solubility stands for solubility judged after dilution from a stock solution rather than from solid. For the molecule `Cc1ccc(NC(=O)c2cc(=O)[nH]c3ccccc23)cc1`, the kinetic solubility amounted to 1.6 µg/mL (≈ 5.75 µM).
Turning to `COc1cc(C)ccc1OCC(=O)OCC(=O)c1[nH]c(C)c(C(C)=O)c1C`, the solubility (kinetic) was 13.5 µg/mL (≈ 36.2 µM).
In the case of `COc1cc(/C=C2/CC(C)OC2=O)c([N+](=O)[O-])cc1OC` (stereo unspecified) it was greater than 44 µg/mL; in that of `COc1cccc(C(C)NC(=O)C2CCCO2)c1` (stereo unspecified), 36.1 µg/mL (≈ 145 µM).
To `O=C(NN1CCOCC1)c1ccccc1` belongs greater than 30.9 µg/mL; to `Nc1cc(OCC(F)(F)F)cc(OCC(F)(F)F)c1`, greater than 43.4 µg/mL; to `FC(F)(F)c1ccnc(NCc2ccc(Cl)cc2)n1`, 4.3 µg/mL (≈ 14.9 µM).
Regarding `O=C1NCC(NC(=O)C(F)(F)F)c2cc3c(cc21)OCO3` (stereo unspecified), the kinetic solubility was greater than 45.3 µg/mL.
In the case of `CC(OC(=O)c1ccc(Cl)cc1)C(=O)NCC1CCCCC1` (stereo unspecified) it was 13.8 µg/mL (≈ 42.6 µM); in that of `NS(=O)(=O)c1ccc(CCNC(=O)CN2CCCCCC2)cc1`, greater than 50.9 µg/mL; in that of `COc1cccc(NC(=O)COc2cccnc2[N+](=O)[O-])c1`, 5.8 µg/mL (≈ 19.1 µM).
To `Cc1nc(Nc2ccc(Cl)cc2)c(C#N)c(=O)[nH]1` belongs 9.6 µg/mL (≈ 36.8 µM).
`O=C1c2cc([N+](=O)[O-])ccc2-c2ncccc21` gave a solubility (kinetic) of 7.4 µg/mL (≈ 32.7 µM).
To `O=C(Nc1ccc(F)cc1)c1cc2c(s1)CCCC2` belongs less than 0.6 µg/mL; to `CCS(=O)(=O)c1ccc2oc(Nc3cccc(OC)c3)nc2c1`, 8.2 µg/mL (≈ 24.7 µM).
`COc1ccc(OC)c2sc(N(CCN(C)C)C(=O)c3ccc4ccccc4c3)nc12.Cl` displayed a solubility (kinetic) of 8.6 µg/mL.
To `CC(Sc1ncccn1)C(=O)Nc1ccc2c(c1)OCCO2` (stereo unspecified) belongs greater than 47.6 µg/mL; to `Cc1ccc(C)c(OCCCCN2CCNCC2)c1C.O=C(O)C(=O)O`, greater than 55 µg/mL; to `O=C(NC1CCN(c2ncccn2)CC1)c1ccccc1F`, 39.7 µg/mL (≈ 132 µM).
`CCOc1ccccc1C(=O)OCC(=O)Nc1cccc(S(=O)(=O)N2CCCC2)c1` displayed a solubility (kinetic) of 19.2 µg/mL (≈ 44.4 µM).
In the case of `COc1ccccc1Nc1nc(NCC(C)C)nc(N)c1[N+](=O)[O-]` it was 0.3 µg/mL (≈ 0.903 µM); in that of `O=C(O)c1ccccc1Nc1cc(Cl)c2nonc2c1[N+](=O)[O-]`, 43.3 µg/mL (≈ 129 µM).
To `CC(NC(=O)c1cccc(Cl)c1)C1CC2CCC1C2` (stereo unspecified) belongs less than 0.6 µg/mL.
To `COC(=O)c1sc(-c2cccs2)cc1NC(=O)/C=C/C(=O)O` belongs greater than 50.6 µg/mL; to `COc1ccc(CNC(=O)Nc2ccccc2)cc1`, 13.5 µg/mL (≈ 52.7 µM).
Turning to `Cc1ccc(-c2nc(-c3ccncc3)no2)c(Cl)c1`, the solubility (kinetic) came to 0.5 µg/mL (≈ 1.84 µM).
To `COc1cccc(CNCCO)c1OCc1ccc(Cl)cc1.Cl` belongs greater than 53.7 µg/mL.
In the case of `COc1ccccc1CNc1ccc(N2CCCCC2)cc1` it was 30 µg/mL (≈ 101 µM).
In the case of `CC1CC(C)CN(C(=O)C(Cc2ccccc2)n2cccc2)C1` (stereo unspecified) it was 4.4 µg/mL (≈ 14.2 µM); in that of `O=C(Nc1ccc(S(=O)(=O)Nc2nccs2)cc1)C(F)(F)F`, greater than 52.7 µg/mL; in that of `CCCCn1c(N)c(N(CC(C)C)C(=O)c2cnccn2)c(=O)[nH]c1=O`, 53.9 µg/mL (≈ 150 µM).
As to `CCC1CCCCN1C(=S)NC(=O)c1cccc([N+](=O)[O-])c1` (stereo unspecified), the kinetic solubility is greater than 48.2 µg/mL.
In the case of `COc1ccc(C(=O)CCC(=O)Nc2cccnc2)cc1OC` it was greater than 47.2 µg/mL; in that of `N#C/C(=C\c1ccc(OCC(N)=O)cc1)S(=O)(=O)c1ccccc1`, 9.4 µg/mL (≈ 27.5 µM); in that of `Cn1c(N2CCCC2)nc2c1c(=O)[nH]c(=O)n2C`, greater than 37.4 µg/mL.
To `CC(NC(=O)CCC(=O)NC(C)c1ccccc1)c1ccccc1` (stereo unspecified) belongs 46.2 µg/mL (≈ 142 µM); to `O=[N+]([O-])c1ccccc1OCCCOc1cccc2cccnc12`, 18.2 µg/mL (≈ 56.1 µM); to `CCOc1cc(C=O)ccc1OCCn1c([N+](=O)[O-])cnc1C`, 18.1 µg/mL (≈ 56.7 µM).
In the case of `O=C1[C@@H]2CSCN2C(=O)CN1Cc1ccccc1F` it was greater than 42 µg/mL.
Regarding `CN(C(=O)CSc1nc2ccccc2c(=O)n1C)C1CCS(=O)(=O)C1` (stereo unspecified), the solubility (kinetic) is greater than 57.2 µg/mL.
To `CCCN(CC1CCCO1)C(=O)CCc1nnc(-c2cc(C)on2)o1` (stereo unspecified) belongs greater than 52.3 µg/mL; to `O=C(COC(=O)C1CC(=O)N(Cc2ccccc2)C1)Nc1cccc([N+](=O)[O-])c1` (stereo unspecified), greater than 59.6 µg/mL; to `Cc1nc2nc(SCC(=O)c3ccccc3)[nH]c2cc1Br`, less than 0.3 µg/mL.
To `CCOC(=O)C1=C(C)NC(=O)NC1c1cccs1` (stereo unspecified) belongs greater than 39.9 µg/mL; to `COc1ccc(CCC(=O)N2CCN(c3ccc(OC)cc3)CC2)cc1`, 41 µg/mL (≈ 116 µM).
To `COc1cccc(C2NC(=O)CCC2[N+](=O)[O-])c1OC` (stereo unspecified) belongs 39.4 µg/mL (≈ 141 µM); to `CC1CCCCC1NC(=S)NC(=O)c1ccccc1Cl` (stereo unspecified), 1.6 µg/mL (≈ 5.15 µM); to `COc1ccc(NC(=S)NC(=O)C2CCC2)cc1`, 7.7 µg/mL (≈ 29.1 µM).
As for `O=C(OCC(=O)N1CCOCC1)c1ccc(O)cc1`, the kinetic solubility is 31 µg/mL (≈ 117 µM).
To `CC(C)(C)c1nc2cc(Cl)c([N+](=O)[O-])cc2o1` belongs 6.5 µg/mL (≈ 25.5 µM); to `O=C(Nc1nc(-c2ccncc2)cs1)c1ccc(F)cc1`, less than 0.2 µg/mL.
In the case of `Cc1cc(NC(=O)C(=O)c2c(C)[nH]c3ccccc23)no1` it was 28.2 µg/mL (≈ 99.5 µM); in that of `Cc1nn(CC(=O)NCc2ccccc2)c(=O)c2cccn12`, greater than 44.4 µg/mL.
In turn, `COC(c1ccccc1)(c1ccccc1)C(Oc1nc(C)cc(C)n1)C(=O)O` (stereo unspecified) gave a solubility (kinetic) greater than 56.8 µg/mL.
To `COc1ccccc1P(=O)(c1ccccc1)c1ccccc1NC(C)=O` (stereo unspecified) belongs greater than 54.8 µg/mL; to `c1ccc2nc3c(cc2c1)CCCCC3`, 3.4 µg/mL (≈ 17.2 µM).
To `CCOc1ccc(CN(C)C(=O)CNC(=O)c2ccccc2)cc1` belongs greater than 49 µg/mL.
In the case of `O=C(Nc1cc(C(F)(F)F)ccc1N1CCOCC1)C1CCCO1` (stereo unspecified) it was greater than 51.6 µg/mL.
Molecule `N#Cc1c(C(F)(F)F)cc(-c2ccc(F)cc2)nc1SCC(=O)O` gave a solubility (kinetic) of 51.2 µg/mL (≈ 144 µM).
To `O=C(CCCn1cc([N+](=O)[O-])cn1)N1CCCCC1` belongs greater than 39.9 µg/mL; to `Cc1ccnc2nc(C(=O)NCc3ccccc3)nn12`, greater than 40.1 µg/mL.
In the case of `O=c1oc(-c2ccco2)nc2sc3c(c12)CCCCC3` it was less than 0.6 µg/mL; in that of `Cc1ccc(C)c(N2C(=O)CC(Cc3ccccc3)C2=O)c1.Cl` (stereo unspecified), greater than 49.5 µg/mL; in that of `O=C(N/C(=C\c1ccco1)C(=O)N1CCCC(CO)C1)c1ccccc1` (stereo unspecified), greater than 53.2 µg/mL.
Molecule `O=C(NCCc1ccncc1)Nc1ccc(Cl)c(Cl)c1` gave a kinetic solubility greater than 46.5 µg/mL.
In the case of `COc1ccc(NC(=O)c2cc(-c3ccco3)on2)cc1OC` it was 1.6 µg/mL (≈ 5.09 µM); in that of `COc1ccc(-c2nnc(SCC(=O)O)n2C)cc1OC`, greater than 46.4 µg/mL.
To `COC(=O)NC(=C(Cl)Cl)P(=O)(c1ccccc1)c1ccccc1` belongs greater than 55.5 µg/mL; to `CCn1c(CCc2ccccc2)nnc1SCC(N)=O`, greater than 43.6 µg/mL; to `COc1ccccc1-c1nc2ccc(Cl)cc2c(=O)n1O`, greater than 45.4 µg/mL.
For `COc1cc(C(C)=O)ccc1OCC(=O)N1CCc2ccccc2C1`, the kinetic solubility was 43.9 µg/mL (≈ 129 µM).
In the case of `COC(=O)c1c(NC(=O)c2ccc(C)cc2)csc1C` it was less than 0.6 µg/mL; in that of `NS(=O)(=O)c1ccc(CNC(=S)NC2CCCCC2)cc1`, 47.9 µg/mL (≈ 146 µM); in that of `COc1cc(/C=C/C(=O)O)cc(S(=O)(=O)Nc2cc(C(F)(F)F)ccc2N2CCOCC2)c1OC`, greater than 77.5 µg/mL.
`CCOc1ccc(NC2=CC(=O)CCC2)cc1`: the solubility (kinetic) was found to be 29.5 µg/mL (≈ 128 µM).
In the case of `c1ccc(C(NCCNC(c2ccccc2)c2ccccc2)c2ccccc2)cc1` it was 1.7 µg/mL (≈ 4.33 µM); in that of `O=S(=O)(/C=C/c1ccccc1)N1CCNCC1`, greater than 37.8 µg/mL.
In the case of `CC(OC(=O)c1cccc([N+](=O)[O-])c1)C(=O)NCc1ccc2c(c1)OCO2` (stereo unspecified) it was 22.4 µg/mL (≈ 60.2 µM).
In the case of `COc1ccc(/C=C2\C(=O)NC(=S)N(C)C2=O)cc1C` it was greater than 43.6 µg/mL; in that of `O=C(NC12CC3CC(CC(C3)C1)C2)c1ccc(N2CCNCC2)c([N+](=O)[O-])c1`, 40.8 µg/mL (≈ 106 µM); in that of `COc1ccccc1C(=O)NCCC(=O)Nc1cccc(C)n1`, greater than 47 µg/mL.
`CC1=CSC2=NS(=O)(=O)CCN12` displayed a kinetic solubility greater than 30.6 µg/mL.
To `COc1cccc(OC)c1C1=NC(C)(C)CO1` belongs greater than 35.3 µg/mL.
To `O=C(c1cc2c(s1)-c1ccccc1S(=O)(=O)C2)N1CCCC1` belongs 47.6 µg/mL (≈ 143 µM).
In the case of `CCN1C(=O)/C(=C/N2CCc3ccccc3C2)SC1=S` it was less than 0.3 µg/mL; in that of `COc1ccc(NC(=O)c2ccc3[nH]c(C)c(C)c3c2)c(OC)c1`, 1.9 µg/mL (≈ 5.86 µM); in that of `Cc1nc(SCC(=O)NCc2ccc3c(c2)OCO3)nc(C)c1C`, greater than 51.8 µg/mL.
In turn, `Cc1cc(=O)oc2cc(NC(=O)c3cc(F)ccc3F)ccc12` had a kinetic solubility of 2.1 µg/mL (≈ 6.66 µM).
In the case of `Cc1ccc(S(=O)(=O)N2CCCCC2)cc1C(=O)NCc1ccc(S(N)(=O)=O)cc1` it was 2.8 µg/mL (≈ 6.2 µM).
In the case of `COc1cccc2c(=O)c3c([nH]c12)OC(C)(C)C3`, the solubility (kinetic) was greater than 36.8 µg/mL.
In the case of `Cn1cc(C(=O)Nc2ccc(C#N)cc2)c2ccccc2c1=O` it was less than 0.2 µg/mL; in that of `O=C(NCCSCc1ccc(Cl)cc1)c1cccs1`, 21.5 µg/mL (≈ 68.9 µM).
To `CCc1cccc(NC(=O)COC(=O)/C=C/c2cccs2)c1` belongs 8.2 µg/mL (≈ 26 µM); to `O=C(COC(=O)c1ccc(F)cc1)NCC1COc2ccccc2O1` (stereo unspecified), greater than 51.8 µg/mL.
To `Cc1cnc([N+](=O)[O-])n1CCOC(=O)NC(=O)c1ccccc1` belongs 44.4 µg/mL (≈ 139 µM).
The molecule `COc1ccc(C(=O)C2CCCN(S(=O)(=O)C(C)C)C2)c(C)c1` (stereo unspecified) displayed a kinetic solubility of 45.4 µg/mL (≈ 134 µM).
As for `C/C(=N\OC(=O)Nc1ccc(Cl)cc1)c1ccc(F)c(F)c1`, the kinetic solubility was found to be 5.2 µg/mL (≈ 16 µM).
To `Cc1ccc(C(=O)Nc2ccc(C(=O)N3CCCCC3C)cc2)cc1` (stereo unspecified) belongs 5.2 µg/mL (≈ 15.5 µM); to `Cc1nc(N/C(N)=N/S(=O)(=O)c2ccccc2)nc2ccccc12`, 3.6 µg/mL (≈ 10.5 µM).
To `COc1ccc(C2C(C(C)=O)=C(O)C(=O)N2c2ccc(O)cc2)cc1` (stereo unspecified) belongs greater than 50.9 µg/mL; to `COC(=O)C1CN(C(=O)c2ccc(OC(F)F)cc2)c2ccccc2O1` (stereo unspecified), 43.1 µg/mL (≈ 119 µM).
